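Briefly, cells in 96-well plates were exposed to five compound concentrations for 48 h, and endpoints were estimated by linear interpolation. TGI is the concentration that stops growth completely.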

Some test systems named below: ACHN renal; SW-620 colon; HT29 colon; HS 578T breast; KM12 colon; SN12C renal; NCI-H23 lung; MCF7 breast; SF-539 CNS; TK-10 renal; NCI-H522 lung.
Holding throughout (experiment): NCI anticancer screen, dose series, 48 h

As for `O=C(/C=C/c1cccc(Br)c1)c1cccs1`, the TGI in the assay on ACHN renal was 39.8 µM; in the assay with SW-620 colon, 27.5 µM; in the assay on HT29 colon, 25.3 µM; in the assay on HS 578T breast, 72.3 µM; with KM12 colon, 31.6 µM; with SN12C renal, 31.1 µM. Further, the TGI in the assay on NCI-H23 lung was found to be 41.6 µM; with MCF7 breast it was 33 µM; in the assay on SF-539 CNS, 31.9 µM; in the assay with TK-10 renal it was 31.5 µM.

Turning to `COC(=O)C(C)(N=Cc1ccccc1)c1ccccc1` (stereo not drawn), the TGI with ACHN renal, in the assay with SW-620 colon, in the assay on HT29 colon, in the assay with HS 578T breast, in the assay with NCI-H522 lung and with KM12 colon was above 100 µM in each case. Further, the TGI with SN12C renal, in the assay with NCI-H23 lung, in the assay with MCF7 breast, in the assay on SF-539 CNS and with TK-10 renal was above 100 µM in each case.

For the compound `Cn1ccn2c3nc4ccccc4nc3c(=O)c(C#N)c12`, the TGI in the assay on ACHN renal, with SW-620 colon, in the assay with HT29 colon, in the assay on HS 578T breast, in the assay on NCI-H522 lung and in the assay on KM12 colon was above 100 µM throughout. Also, the TGI in the assay with SN12C renal, with NCI-H23 lung, in the assay with MCF7 breast, in the assay on SF-539 CNS and in the assay with TK-10 renal was above 100 µM each time.

With `NC(=O)c1nnc2cc(F)ccc2c1N`, the TGI with ACHN renal, in the assay with SW-620 colon, in the assay on HT29 colon, in the assay on HS 578T breast, with NCI-H522 lung and in the assay on KM12 colon was above 100 µM throughout. In addition, the TGI in the assay on SN12C renal, with NCI-H23 lung, in the assay with MCF7 breast, in the assay with SF-539 CNS and in the assay on TK-10 renal was above 100 µM throughout.

On to `CCCCCC(=O)N[C@@H](c1ccccc1)C(O)C(=O)OC1C[C@@]2(O)C(OC(=O)c3ccccc3)C3[C@](C)(C(=O)[C@H](O)C(=C1C)C2(C)C)C(OC1OCC(O)C(O)C1O)C[C@H]1OC[C@@]31OC(C)=O` (stereo partly drawn), for which the TGI with ACHN renal was above 100 µM; with SW-620 colon, above 100 µM; with HT29 colon, above 36.8 µM; with HS 578T breast it was 8.23 µM; in the assay on NCI-H522 lung, 3.92 µM; in the assay with KM12 colon, above 38.3 µM. For the same compound, the TGI is above 100 µM in the assay with SN12C renal; above 100 µM with NCI-H23 lung; above 56.7 µM with MCF7 breast; 5.68 µM in the assay on SF-539 CNS; above 100 µM with TK-10 renal.

Consider `CC(C)[C@@H]1CC[C@@H](C)C[C@H]1OC(=O)/C=C1/C2C=CC(O2)C1C(=O)O[C@@H]1C[C@H](C)CC[C@H]1C(C)C` (stereo partly drawn), for which the TGI in the assay on ACHN renal, in the assay on SW-620 colon, in the assay with HT29 colon, in the assay on HS 578T breast, in the assay on NCI-H522 lung and in the assay with KM12 colon was above 100 µM in each case. Also, the TGI in the assay on SN12C renal, in the assay with NCI-H23 lung, in the assay on MCF7 breast, in the assay with SF-539 CNS and with TK-10 renal was above 100 µM throughout.

For `C1CSCCCSCCSCCCSC1`, the TGI in the assay with ACHN renal, with SW-620 colon, in the assay on HT29 colon, in the assay with HS 578T breast, with NCI-H522 lung and with SN12C renal was above 100 µM in each case. Further, the TGI with NCI-H23 lung, with MCF7 breast, in the assay with SF-539 CNS and in the assay on TK-10 renal was above 100 µM each time.

On to `COc1cc(OC)c2c(O)c3c(cc2c1)CC(C)(C)CC3=O`, for which the TGI in the assay with ACHN renal, in the assay on SW-620 colon, with HT29 colon, in the assay with HS 578T breast, in the assay on NCI-H522 lung and with KM12 colon was above 100 µM in each case. Also, the TGI in the assay with SN12C renal, in the assay on NCI-H23 lung, in the assay on MCF7 breast, in the assay with SF-539 CNS and in the assay with TK-10 renal was above 100 µM throughout.

In the case of `COC(=O)C(CCc1ccccc1I)C1=CCC2(CC1)OCCO2` (stereo not drawn), the TGI was above 100 µM in the assay on ACHN renal; above 100 µM in the assay with SW-620 colon; above 100 µM in the assay with HT29 colon; above 100 µM in the assay on HS 578T breast; 68.8 µM with NCI-H522 lung; above 100 µM in the assay on KM12 colon. Further, the TGI with NCI-H23 lung, in the assay with MCF7 breast, in the assay with SF-539 CNS and with TK-10 renal was above 100 µM each time.

`CC(C)SC(C)(NC(=O)C1C(C)(C)CCC1(C)C)C(=O)O` (stereo not drawn): the TGI with ACHN renal, with SW-620 colon, in the assay with HS 578T breast, with SN12C renal, in the assay with NCI-H23 lung and with MCF7 breast was above 100 µM throughout. Also, the TGI in the assay on SF-539 CNS and in the assay with TK-10 renal was above 100 µM each time.

With `O=C(Nc1nc2c(=O)[nH]cnc2s1)c1ccccc1`, the TGI in the assay on ACHN renal, with SW-620 colon, in the assay with HT29 colon, in the assay on HS 578T breast, in the assay on NCI-H522 lung and in the assay on SN12C renal was above 100 µM in each case. Also, the TGI in the assay with NCI-H23 lung, in the assay on MCF7 breast, in the assay with SF-539 CNS and in the assay on TK-10 renal was above 100 µM throughout.

As for `CC(C(=O)ON1C(=O)CCC1=O)c1ccc(C(=O)c2ccccc2)s1` (stereo not drawn), the TGI in the assay with ACHN renal, in the assay on SW-620 colon, in the assay on HT29 colon, in the assay with HS 578T breast, in the assay on NCI-H522 lung and in the assay on KM12 colon was above 100 µM throughout. In addition, the TGI in the assay on SN12C renal, in the assay with NCI-H23 lung, with MCF7 breast and in the assay on TK-10 renal was above 100 µM throughout.

For the compound `Cc1cc(-c2[nH]c(C(=O)O)cc2I)on1`, the TGI in the assay with ACHN renal, in the assay with SW-620 colon, in the assay with HT29 colon, in the assay with HS 578T breast, in the assay with NCI-H522 lung and with KM12 colon was above 100 µM throughout. Moreover, the TGI in the assay with NCI-H23 lung, in the assay with MCF7 breast and in the assay on TK-10 renal was above 100 µM throughout.

Values taken from PubChem BioAssay (NCI).
